Values belong to the compound of their own block, whether it stands above or below them.
Columns and labels:
all three NOS isoforms = conditions: similar for all three NOS isoforms; cited from earlier work
wild type nNOS = wild type nNOS (Rattus norvegicus, UniProt P29476); assay: Ki for inhibition of wild type nNOS; type: biochemical
Source text: (§1) We next tested this hypothesis by producing D597N nNOS and N368D eNOS mutant proteins.

D597N nNOS mutant = biological target: T1, D597N nNOS mutant (Rattus norvegicus, UniProt P29476, D597N); assay: Ki for inhibition of D597N nNOS mutant; type: biochemical
T1 construct: made in house
Source text: as §1

N368D eNOS mutant = N368D eNOS mutant (Bos taurus, UniProt P29473, N368D); assay: Ki for inhibition of N368D eNOS mutant; type: biochemical; conditions: Asn368 replaced with Asp in eNOS (N368D eNOS mutant)
Source text: as §1

NOS = conditions: cited from earlier work

SMILES: N=C(N)NCCC[C@H](N)C(=O)O [L-arginine]
- Km (all three NOS isoforms): low μM range

- Ki (wild type nNOS): 0.097 µM
- Ki (D597N nNOS mutant): 21 µM
- Ki (N368D eNOS mutant): 5.1 µM
SMILES: NC(=O)[C@@H]1C[C@@H](N)CN1C(=O)[C@@H](N)CCC/N=C(\N)N[N+](=O)[O-] [DIP3, L-N^□-nitroarginine-(4R)-amino-L-proline amide]

SMILES: N=C(NCCC[C@H](N)C(=O)O)N[N+](=O)[O-] [L-NNA, L-N^ω-nitroarginine]
- potency (NOS; L-NNA bound in the active site of eNOS (FIG. 1C legend)): low nM
- selectivity between NOS isoforms (NOS): poor selectivity

— patent publication US7056945B1, “Selective inhibition of neuronal nitric oxide synthase” (priority 2002, dated 2006)
